# Measurements as given in patent publication US8889112B2, “Ophthalmic formulations including selective alpha 1 antagonists” (Ocularis Pharma, LLC, priority 1999, dated 2014).
# Values joined by “and” are separate entries in the source; they are usually repeats but may differ in a detail not shown here. Equal entries are not always repeated. Structures can show the parent of a compound that is named as a salt. Where two headings read alike, the source gives them in different places.
# Experiments:
# human eye [1] = test: Effect of alpha adrenergic receptor antagonists on pupil dilation (Table 1, patients); type: in vivo; details: for Effect on pupil diam. in darkness (mm): pupil diameter after drug, from 7.5 mm before, topical, 5 mg/ml (phentolamine 3.3 mg/ml via soft contact lens for 30 minutes)
# Description: However, only the imidazolines obtain the desired reduction in dilation without causing excessive redness of the eye. In addition, the present invention in an embodiment provides a sub-class of alpha antagonists that can act as a sole active component in an ophthalmic medication to effectively reduce pupil light reflex while providing minimal, if any, redness response upon application thereof to the eye. In an embodiment, the sub-class of alpha antagonists includes alpha 1 selective antagonists, including alpha 1a selective antagonists, such as tamsulosin.
# human eye [2] = details: for Effectiveness in reducing pupil dilation in dim light: topical, phenoxybenzamine, prazosin, tolamine 0.1% to 5%, labetalol S,S and S,R isomers 0.1% to 2%; for Duration of effect: single administration per day, eye drop or drop on soft contact lens
# Experimental: A preferred concentration of about 1 to about 5 milligrams of active agent per cc of total formulation volume in an embodiment may be administered by placing a single drop on a moist soft contact lens, and inserting the lens for about 15 minutes to about 45 minutes at one time per day. […] The drop may be administered in a one to five milligram per cc concentration directly to the eye as a recommended daily or BID dosing according to an embodiment of the present invention.
# A 5 mg/ml vial of phentolamine was diluted in an artificial tear formulation to approximately 6.0 cc of solution.
# Labetalol, a potent beta adrenergic receptor antagonist, consists of four isomers, two of which have some alpha 1 antagonist activity.
# human eye [3] = details: cited from earlier work
# human eye [4] = test: Effect of phentolamine 0.35% on pupil diameter in dim and bright light (Table 2); type: in vivo
# human eye [5] = test: Effect of phentolamine eye drops on visual acuity in dim light (Table 3); type: in vivo; details: one line per subject
# Description: The results illustrate the benefit that is derived from reducing pupil diameter by 1 mm or more and/or pupil area by 20% or more in dim light conditions pursuant to an embodiment. In this regard, a significant increase in spherical aberrations is typically found per each one millimeter of increase in pupil size diameter above 5 mm. These aberrations generally increase as a function of severity of the refractive error, particularly increases in the myopic spherical equivalent of refractive error. Coma may increase, as well as other higher order aberrations, as pupil size diameter increases, again especially as refractive error increases. Thus, a reduction in pupil diameter by 1 mm or more and/or pupil area by 20% or more can effectively act to improve vision in dim light conditions. As previously discussed, the present invention contemplates the use of a single active agent, preferably an alpha 1a selective antagonist, that can optimize pupil light reflex while minimizing, if not eliminating, redness. [table]
# [6] = duration of effect on pupil, 5 mg/ml (phentolamine 3.3 mg/ml via soft contact lens)
# [7] = pupil diameter after 3.3 mg/cc, single drop on soft contact lens placed for 30 minutes, one line per subject
# [8] = pupil diameter before drug (baseline), one line per subject
compound,measurement,setting,value
"Cc1ccccc1N1CCN(CCc2nnc3n2CCCC3)CC1 [Dapiprazole, 5,6,7,8 tetrahydro-3-[2-(4-o,tolyl-1-piperazinyl)ethyl]-8-triazolo[4,3-a]pyridine hydrochloride]",Duration,human eye [1]; [6],5 to 12 h
same,Effect on pupil diam. in darkness (mm),human eye [1],7.5 -> 7 mm
same,Redness / vasodilation of the eye,human eye [2]; in vivo,unacceptably high levels of eye redness with severe blood vessel dilation
same,Effectiveness in reducing pupil dilation in dim light,human eye [2],minimal if any clinically significant effect
same,Redness and chemosis upon instillation,human eye [3]; 0.5% solution,substantial increased redness and conjunctival chemosis
same,Effectiveness in reducing pupil size in dim light,"human eye [3]; topical, compared to phentolamine and phenoxybenzamine, U.S. Pat. No. 6,515,006",not as effective
CC(CCc1ccccc1)NCC(O)c1ccc(O)c(C(N)=O)c1 (stereo not drawn) [Labetalol],Effectiveness in reducing pupil dilation in dim light,human eye [2],modestly effective
CC(COc1ccccc1)N(CCCl)Cc1ccccc1 (stereo not drawn) [Phenoxybenzamine],Duration (hrs),human eye [1]; [6],≧20 hrs
same,Effect on pupil diam. in darkness (mm),human eye [1],7.5 -> 5.5 mm
same,Redness / vasodilation of the eye,human eye [2]; topical application as only active compound,induce much more vasodilation and congestion
same,Redness / vasodilation of the eye,"human eye [2]; topical application as only active compound, listed as phenoxybenzamine",unacceptably high level of redness
same,Effectiveness in reducing pupil dilation in dim light,human eye [2],have not been as effective as phentolamine
Cc1ccc(N(CC2=NCCN2)c2cccc(O)c2)cc1 [Phentolamine],Duration,human eye [1]; [6],20 to 40 h
same,Effect on pupil diam. in darkness (mm),human eye [1],7.5 -> 4.0 mm
same,Bright Light Post mm,human eye [4]; [7],3.0 mm (2×) and 2.5 mm (3×)
same,Dim Light Post mm,human eye [4]; [7],4.0 mm (3×) and 3.0 mm and 3.5 mm
same,Bright Light Pre mm,human eye [4]; [8],4.0 mm and 3.0 mm (3×) and 3.5 mm
same,Dim Light Pre mm,human eye [4]; [8],7.5 mm (2×) and 3.5 mm and 4.0 mm and 7.0 mm
same,halos reduced,"human eye [4]; subject, post drug",70% reduced; depth
same,Pupil Diameter in Dim Light Post-Drug mm,human eye [5]; after phentolamine eye drops,6.9 mm (2×) and 7.1 mm (2×) and 5.9 mm (2×) and 7.5 mm and 6.5 mm and 7.4 mm
same,Pupil Diameter in Dim Light Pre-Drug mm,human eye [5]; before drug (baseline),7.7 mm and 8.5 mm and 7.9 mm (3×) and 7.8 mm (2×) and 8.2 mm (2×)
same,Pupil Diameter Change mm,"human eye [5]; reduction in dim light, pre minus post",0.8 mm (2×) and 1.4 mm (2×) and 2.0 mm and 0.9 mm and 0.4 mm and 1.1 mm and 1.9 mm
same,Pupil Area Change %,human eye [5]; reduction of pupil area in dim light,20% and 30% and 44% and 22% and 10% and 25% and 32% and 19% and 43%
same,Dim Light Contrast Post-Drug,human eye [5]; visual acuity after phentolamine eye drops,20/25 and 20/22 and 20/20 and 20/24 and 20/38 and 20/21 (2×) and 20/32 and 20/50
same,Dim Light Contrast Pre-Drug,human eye [5]; visual acuity before drug (baseline),20/29 (2×) and 20/35 and 20/32 (2×) and 20/63 and 20/38 and 20/40 and 20/53
same,Redness / vasodilation of the eye,human eye [2]; in vivo,"very slight, transient redness"
same,Duration of effect,human eye [2],20 to 24 h
same,Duration of effect,human eye [2]; listed as phentolamine,20 to 24 h
COc1cc2nc(N3CCN(C(=O)c4ccco4)CC3)nc(N)c2cc1OC [Prazosin],Duration,human eye [1]; [6],5 to 12 h
same,Effect on pupil diam. in darkness (mm),human eye [1],7.5 -> 6 mm
CC[C@@H]1C(=O)OC[C@@H]1Cc1cncn1C [pilocarpine],Duration of miotic effect,human eye [3]; in vivo,only a few hours
same,Side effects,human eye [3]; in vivo,"brow ache, ciliary muscle contraction and pseudo myopia, excessive dimness when first applied"
same,Pupil size when first applied,human eye [3]; usually,less than 2 mm
Tolamine,Duration,human eye [1]; [6],5 to 12 h
same,Effect on pupil diam. in darkness (mm),human eye [1],7.5 -> 6 mm
same,Effectiveness in reducing pupil dilation in dim light,human eye [2],slight pupillary reduction in dilation in dim light but appears to be less effective than phentolamine
